# Laboratory results: ChEMBL document CHEMBL1201862, “PubChem BioAssay data set” (2004)
#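 Compound exposure: 48 hours, 5 concentrations, 96-well plates. Abbreviation: GI50, concentration required for 50% inhibition of growth.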 The source made the active and inactive calls. No stated cut-off is given here; in the data, active = GI50 up to about 1.1 µM and inactive = higher.
# What was measured:
# Experiment in all cases: DTP human tumour cell line panel, 48 h
# 786-0 = system: 786-0
# A549 = system: A549
# ACHN = system: ACHN
# COLO 205 = system: COLO 205
# HCT-15 = system: HCT-15
# HL-60 = system: HL-60
# HOP-62 = system: HOP-62
# IGROV-1 = system: IGROV-1
# KM12 = system: KM12
# LOX IMVI = system: LOX IMVI
# M14 = system: M14
# MCF7 = system: MCF7
# MDA-N = system: MDA-N
# NCI-H522 = system: NCI-H522
# OVCAR-5 = system: OVCAR-5
# RXF 393 = system: RXF 393
# SK-OV-3 = system: SK-OV-3
# SN12C = system: SN12C
# UACC-62 = system: UACC-62
# K562 = system: K562
SMILES,GI50 (786-0),GI50 (A549),GI50 (ACHN),GI50 (COLO 205),GI50 (HCT-15),GI50 (HL-60),GI50 (HOP-62),GI50 (IGROV-1),GI50 (KM12),GI50 (LOX IMVI),GI50 (M14),GI50 (MCF7),GI50 (MDA-N),GI50 (NCI-H522),GI50 (OVCAR-5),GI50 (RXF 393),GI50 (SK-OV-3),GI50 (SN12C),GI50 (UACC-62),GI50 (K562)
Cc1occc1C(=S)Nc1ccc(Cl)c(C(=O)OC(C)C2CC2)c1 (centres undefined),19.3 µM (inactive),35.2 µM (inactive),17.3 µM (inactive),20.1 µM (inactive),18.5 µM,24.2 µM (inactive),17.8 µM (inactive),16 µM (inactive),16.3 µM (inactive),19.4 µM (inactive),24.9 µM (inactive),26 µM (inactive),18.6 µM (inactive),14.4 µM (inactive),23.4 µM (inactive),20.4 µM (inactive),21.6 µM (inactive),18 µM (inactive),22.8 µM (inactive),–
NS(=O)(=O)c1c(O)c2ccccc2oc1=O,> 100 µM (inactive),> 100 µM (inactive),> 100 µM (inactive),> 100 µM (inactive),–,> 100 µM (inactive),> 100 µM (inactive),> 100 µM (inactive),> 100 µM (inactive),> 100 µM (inactive),> 100 µM (inactive),> 100 µM (inactive),> 100 µM (inactive),> 100 µM (inactive),> 100 µM (inactive),> 100 µM (inactive),–,> 100 µM (inactive),> 100 µM (inactive),> 100 µM (inactive)
CC1C2(C)OC(=N)C(C#N)(C(c3ccccc3)O2)C1(C#N)C#N (centres undefined),21.2 µM (inactive),> 100 µM (inactive),38.1 µM (inactive),16.4 µM (inactive),10.9 µM,16.6 µM (inactive),–,33.8 µM (inactive),51.5 µM (inactive),17.2 µM (inactive),13.9 µM (inactive),21.2 µM (inactive),18.2 µM (inactive),–,25.5 µM (inactive),30.3 µM (inactive),> 100 µM (inactive),16.6 µM (inactive),24.4 µM (inactive),25.1 µM (inactive)
COc1ccc(O[C@H](CO)C[C@@H]2COC(C)(C)O2)cc1,> 100 µM (inactive),> 100 µM (inactive),> 100 µM (inactive),> 100 µM (inactive),> 100 µM,–,> 100 µM (inactive),> 100 µM (inactive),> 100 µM (inactive),> 100 µM (inactive),> 100 µM (inactive),> 100 µM (inactive),> 100 µM (inactive),> 100 µM (inactive),> 100 µM (inactive),> 100 µM (inactive),> 100 µM (inactive),> 100 µM (inactive),> 100 µM (inactive),> 100 µM (inactive)
O=C1/C(=C\c2cccc(Oc3ccccc3)c2)SC(c2ccccc2)N1c1ccc(Cl)cc1 (centres undefined),52.4 µM (inactive),> 40.6 µM (inactive),20.2 µM (inactive),11.2 µM (inactive),7.55 µM,10.1 µM (inactive),> 57.1 µM (inactive),–,12.6 µM (inactive),15.8 µM (inactive),3.17 µM (inactive),16.3 µM (inactive),4.79 µM (inactive),10.2 µM (inactive),> 39.7 µM (inactive),19.5 µM (inactive),14.1 µM (inactive),26.7 µM (inactive),9.04 µM (inactive),2.64 µM (inactive)
Cn1c(=O)n2c(=O)n(C)c(=O)n2c1=O,> 100 µM (inactive),> 100 µM (inactive),–,> 100 µM (inactive),> 100 µM,> 100 µM (inactive),–,> 100 µM (inactive),> 100 µM (inactive),> 100 µM (inactive),> 100 µM (inactive),> 100 µM (inactive),> 100 µM (inactive),> 100 µM (inactive),> 100 µM (inactive),> 100 µM (inactive),> 100 µM (inactive),> 100 µM (inactive),> 100 µM (inactive),> 100 µM (inactive)
CCOC(=O)NC(Nc1ccc(C(=O)OCC)cc1)(C(F)(F)F)C(F)(F)F,> 100 µM (inactive),50.9 µM (inactive),42.7 µM (inactive),> 100 µM (inactive),42.9 µM,> 100 µM (inactive),> 100 µM (inactive),56.8 µM (inactive),78.9 µM (inactive),4.26 µM (inactive),> 100 µM (inactive),> 100 µM (inactive),49.8 µM (inactive),> 100 µM (inactive),79.8 µM (inactive),–,> 100 µM (inactive),> 100 µM (inactive),13.1 µM (inactive),9.29 µM (inactive)
Clc1ccc(-c2nn3c(CCCCCCCCc4nnc5sc(-c6ccc(Cl)cc6)nn45)nnc3s2)cc1,20.1 µM (inactive),13.2 µM (inactive),30.1 µM (inactive),26.6 µM (inactive),26.3 µM,–,26.4 µM (inactive),22.8 µM (inactive),11.9 µM (inactive),7.24 µM (inactive),18.7 µM (inactive),5.81 µM (inactive),18.2 µM (inactive),7.91 µM (inactive),36.3 µM (inactive),14.9 µM (inactive),30.1 µM (inactive),17.5 µM (inactive),32.4 µM (inactive),20 µM (inactive)
